Reference: patent US6410249B1, “Odorant receptors” (priority 1999, dated 2002)
Like-named read-outs stand apart in the source and are kept apart here.

How the values were obtained:
salmon olfactory neurons = conditions: 0.01-10 μM, isolated salmon olfactory neurons; cited from earlier work
receptor 5.24 [1] = target: T1, receptor 5.24 (Carassius auratus, UniProt Q9PW88); experiment: biochemical; assay type: binding
T1 construct: The receptor 5.24 full length cDNA detects 1-2 bands in genomic DNA blots; expressed in transfected cells; host or cells: HEK 293 cells expressing SV40 large T antigen (293-TSA)
T1 sequence (Q9PW88 25-877): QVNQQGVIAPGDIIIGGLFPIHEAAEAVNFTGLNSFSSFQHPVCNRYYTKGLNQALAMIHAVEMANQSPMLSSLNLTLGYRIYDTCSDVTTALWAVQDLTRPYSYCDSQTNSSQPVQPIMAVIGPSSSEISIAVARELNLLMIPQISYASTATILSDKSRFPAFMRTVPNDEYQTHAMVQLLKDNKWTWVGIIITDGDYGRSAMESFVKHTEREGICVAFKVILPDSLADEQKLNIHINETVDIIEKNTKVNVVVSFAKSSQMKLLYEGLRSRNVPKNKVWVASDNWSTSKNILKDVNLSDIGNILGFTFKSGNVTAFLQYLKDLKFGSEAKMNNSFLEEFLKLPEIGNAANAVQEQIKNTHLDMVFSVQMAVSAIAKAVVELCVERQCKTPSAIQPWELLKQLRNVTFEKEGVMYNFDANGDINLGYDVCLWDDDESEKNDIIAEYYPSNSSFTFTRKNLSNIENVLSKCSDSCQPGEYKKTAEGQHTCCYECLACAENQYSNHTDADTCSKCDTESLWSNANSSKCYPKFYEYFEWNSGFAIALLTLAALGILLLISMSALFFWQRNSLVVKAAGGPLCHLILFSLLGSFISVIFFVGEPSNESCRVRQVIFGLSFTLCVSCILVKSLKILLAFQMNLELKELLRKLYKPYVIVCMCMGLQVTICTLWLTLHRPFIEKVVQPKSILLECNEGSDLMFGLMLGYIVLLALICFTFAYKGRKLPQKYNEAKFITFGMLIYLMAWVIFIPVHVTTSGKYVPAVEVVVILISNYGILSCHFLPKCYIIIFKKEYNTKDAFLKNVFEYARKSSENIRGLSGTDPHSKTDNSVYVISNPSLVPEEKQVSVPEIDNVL
Protocol: Structure-Activity Properties of Compounds Interacting with the Cloned Goldfish Amino Acid Odorant Receptor. An understanding of how odorant receptors are used to encode olfactory information requires a characterization of the odorant specificities of individual receptor types. We therefore wished to determine the relative specificity of receptor 5.24 for structurally related ligands. […] Briefly, 3H-arginine binding to membranes from receptor 5.24-expressing HEK 293 cells was assayed in the absence or presence of varying concentrations of competitor ligands.
(§1) Mammalian Cell Culture and DNA Transfections. For cell transfections, the receptor 5.24 cDNA insert was subcloned into two expression vectors: CMVI, which utilizes a human cytomegalovirus (CMV) immediate early promoter-enhancer plus the CMV intron A sequence to drive expression, and 608RX-2.2L, which is similar to CMVI except the cDNA insert is followed by an internal ribosome entry site (IRES)—enhanced green fluorescent protein (EGFP) coding sequence; 608RX-2.2L also contains a puromycin resistance gene. For transient assays, HEK 293 cells expressing the SV40 large T antigen (293 TSA cells) were transfected with the CMVI-receptor 5.24 or CMVI control plasmid using lipofectamine (Life Technologies) and harvested at 48 hours for membrane preparations. For stable cell lines, 293-TSA cells were transfected with the 608RX-2.2L-receptor 5.24 plasmid or a control 608RX-2.2L plasmid and selected in puromycin. Colonies showing high levels of EGFP fluorescence (as judged by epifluorescence microscopy) were picked, expanded, and screened for 3H-L-arginine binding (see below).
(§2) Membrane Preparations and Ligand Binding Assays. Membranes for ligand binding assays were prepared by washing confluent cells three times with phosphate buffered saline (PBS), detaching cells with a PBS-based enzyme-free dissociation solution, and resuspending cells in ice-cold 5.0 mM Hepes, pH 7.4, 1.0 mM EDTA, 1.0 μg/ml leupeptin, 0.5 mM PMSF. All subsequent manipulations were performed on ice. After a 30 min incubation, the cell suspension was homogenized and centrifuged at 100,000×g for 30 min. Cell membrane pellets were washed twice by resuspension and centrifugation in binding buffer (20 mM Hepes, pH 7.4, 1.0 mM EDTA, 2.0 mM MgCl2, 1.0 μg/ml leupeptin, 0.5 mM PMSF), resuspended in binding buffer, and frozen at −80° C.
Saturation binding assays were performed using 20-25 μg of membrane protein in a final volume of 100 μl binding buffer and increasing concentrations of [2,3-3H] L-arginine (specific activity=40 Ci/mmol; Dupont NEN). Non-specific binding was measured in the presence of 500 μM unlabeled L-arginine. Competition assays were performed with 500 nM [2,3-3H] L-arginine and increasing concentrations of competitor ligands. All incubations were performed at 4° C. for 60 min and terminated by rapid filtration through Whatman GF/C filters pretreated with ice cold 0.1% polyethyleneimine. Filters were washed three times with 4.0 ml ice cold 20 mM Hepes, pH 7.4, and retained radioactivity was measured by scintillation counting.

receptor 5.24 [2] = target: T1, receptor 5.24; experiment: evoked currents in Xenopus oocytes expressing receptor 5.24 (two-electrode voltage clamp); assay type: cell-based, goldfish
Text: Identification by Expression Cloning of a cDNA Encoding a Goldfish Odorant Receptor. RNA was synthesized from pools of goldfish olfactory cDNA clones (900 individual clones per pool) and injected into Xenopus oocytes together with synthetic RNAs encoding GIRK and Gaolf. Oocytes were then screened for responses upon exposure to odorant cocktails containing amino acids, bile acids, or sex pheromones. […] The response to amino acids was biphasic, beginning with an oscillating inward current above the basal inward K+ current, followed by a decline in inward current to below the basal level. Such a biphasic effect is thought to be caused by Gaq-mediated activation of phospholipase C (responsible for the intial inward current via IP3) and protein kinase C (leading to suppression of the K+ current through phosphorylation of GIRK channel subunits) (Sharon et al., 1997).
Iterative subdivision of pool 19 by sib-selection allowed the isolation of a single clone encoding a receptor, designated receptor 5.24.
Oocytes were removed from anesthetized Xenopus laevis and treated with collagenase. Forty nanograms of cRNA from each cDNA library pool (˜40 pg cRNA/clone) was injected per oocyte, together with cRNAs encoding Gaolf and the GIRK subunits Kir 3.1 and Kir 3.4 (˜30 pg each). Approximately 30 pools were assayed before these primary screens were halted. Injected oocytes were incubated at 17° C. for over 80 hours prior to electrophysiological recordings. Recordings were performed by two-electrode voltage clamping using an Axoclamp-2A amplifier (Axon Instruments) or a Dagan CA-1 amplifier (Dagan Corp.). Data acquisition and analysis were performed using pCLAMP software (Axon Instruments). Membrane potential was held at −80 mV. For trials involving GIRK, oocytes were first perfused with Na-MBSH (88 mM NaCl, 1 mM KCl, 2.4 mM NaHCO3, 10 mM Hepes, pH 7.5, 0.82 mM MgSO4[7H2O], 0.33 mM Ca[NO3]2[4H2O], 0.41 mM CaCl2[2H2O]), and then switched into K-MBSH, which contains elevated K+ (88 mM KCl, 1 mM NaCl) until the basal current had stabilized (˜45 seconds) before challenging with agonist. Recordings on oocytes injected with receptor 5.24 in the absence of Gaolf and/or GIRK subunits were performed in Na-MBSH. Oocytes were exposed to solutions containing different agonists by switching bathing solutions with an 8 channel valve (Hamilton).

receptor 5.24 [3] = target: T1, receptor 5.24; experiment: 3H-L-arginine saturation binding to membranes of receptor 5.24-expressing HEK 293 cells; set-up: species or system goldfish; conditions: summary statement; read-out: Kd (high affinity interaction)
Text: High-Affinity Binding of Radiolabeled L-Arginine to the Cloned Goldfish Odorant Receptor. To determine the affinity of the cloned goldfish amino acid receptor for basic amino acids, we characterized the ligand-receptor interaction by radiolabeled ligand binding to receptors expressed in mammalian cells. Human embryonic kidney (HEK) 293 cells were transfected with expression plasmids containing the receptor 5.24 cDNA insert. […] We next wished to determine what second messenger pathway receptor 5.24 couples to in HEK 293 cells. Control cells or cells expressing receptor 5.24 were exposed to varying concentrations of arginine and assayed for the accumulation of IP3 and cAMP.
as §1, with “below). In five independent receptor 5.24-transfected stable cell lines, receptor densities (Rt) varied between 0.5 and 6.0 pmol L-arginine binding sites/mg membrane protein. […] All competition binding assays and signal transduction studies were performed using the stable cell line 5.24-20 (Rt=2.0 pmol /mg) and a control cell line (2.2-9) stably transfected with vector alone (Rt=0.03 pmol/mg).” for “below).”
as §2
Saturation binding assays were performed using 20-25 μg of membrane protein in a final volume of 100 μl binding buffer and increasing concentrations of [2,3-3H] L-arginine (specific activity=40 Ci/mmol; Dupont NEN). Non-specific binding was measured in the presence of 500 μM unlabeled L-arginine. Competition assays were performed with 500 nM [2,3-3H] […] Filters were washed three times with 4.0 ml ice cold 20 mM Hepes, pH 7.4, and retained radioactivity was measured by scintillation counting. […] Data were analyzed by nonlinear curve fitting using Origin software (Microcal). […]

[4] = system: goldfish olfactory neurons; experiment: multi-unit recordings from the goldfish olfactory epithelium; assay type: cell-based; conditions: 0.1 μM

In the case of `N[C@@H](CO)C(=O)O` [L-Serine], the “fraction of cells sensitive” value (salmon olfactory neurons) is listed as roughly 60%, the Ki (receptor 5.24 [1]; displacement of 3H-L-arginine from membranes of HEK 293 cells expressing receptor 5.24, read-out: Ki (binding affinity)) is listed as 2800 nM and the “activation of receptor 5.24 (evoked currents), in words” value (receptor 5.24 [2]) is listed as “smaller responses”.

For `NCCCC[C@H](N)C(=O)O` [L-Lysine], the Ki (receptor 5.24 [1]) was 90 nM, the “binding to receptor 5.24, in words” value (receptor 5.24 [1]; comparative binding studies) was “highest affinities” and the Kd (receptor 5.24 [3]) was roughly 100 nM.

In the case of `CCCCCC(=O)/C=C/[C@@H]1[C@@H](C/C=C\CCCC(=O)O)[C@@H](O)C[C@H]1O` [1 5-ketoprostaglandin F2a], the locations that responded [4] is reported as 25 out of 65.
